Source: patent publication US4728658A, “Pyridine derivatives” (John Wyeth & Brother Limited, priority 1984, dated 1988)
Where two headings read alike, the source gives them in different places.

Target: T1, H^+ /K^+ ATPase (Oryctolagus cuniculus, UniProt P27112)
T1 construct: Rabbit gastric glands are isolated from gastric mucosa; from tissue; host or cells: rabbit isolated gastric glands (gastric mucosa, corpus region of the stomach)
Assay: Inhibition of 14C-aminopyrine uptake in rabbit isolated gastric glands stimulated by DBcAMP or high K+ (anti-secretory activity)
Assay type: cell-based
Settings: for inhibition at 100 µM: 10^-4 M, % inhibition of maximum response to secretagogue; for antisecretory activity: result in words in the introduction, test not named
Procedure: Compounds of formula I may be tested for anti-secretory activity by their ability to inhibit the highly specific proton transporting enzyme H^+ /K^+ ATPase.
Potential H^+ /K^+ ATPase inhibitors are evaluated by a technique involving the measurement of aminopyrine accumulation in rabbit isolated gastric glands. Aminopyrine accumulates in acid-secreting cells; therefore, uptake of aminopyrine is increased by secretagogues and an inhibitor of acid secretion will reduce the response to one or more secretagogues depending upon its site of action.
The following test procedure is used:
Rabbit gastric glands are isolated from gastric mucosa from the corpus region of the stomach by a method based on one described by Berglindh T., Obrink K. J., Acta Physiol. Scand.
Compounds are tested at a concentration of 10^-4 M, for their ability to inhibit ^14 C-aminopyrine uptake in gastric glands, stimulated by DBcAMP and high K^+ respectively. Results are expressed as the % inhibition of the maximum response to the secretagogue induced by the test compound.

[1] = 14C-aminopyrine uptake in rabbit gastric glands stimulated by high K^+, read-out: % Inhibition to stimulation by: K^+
[2] = 14C-aminopyrine uptake in rabbit gastric glands stimulated by DBcAMP, read-out: % Inhibition to stimulation by: DBcAMP

T1 sequence (P27112 whole entry): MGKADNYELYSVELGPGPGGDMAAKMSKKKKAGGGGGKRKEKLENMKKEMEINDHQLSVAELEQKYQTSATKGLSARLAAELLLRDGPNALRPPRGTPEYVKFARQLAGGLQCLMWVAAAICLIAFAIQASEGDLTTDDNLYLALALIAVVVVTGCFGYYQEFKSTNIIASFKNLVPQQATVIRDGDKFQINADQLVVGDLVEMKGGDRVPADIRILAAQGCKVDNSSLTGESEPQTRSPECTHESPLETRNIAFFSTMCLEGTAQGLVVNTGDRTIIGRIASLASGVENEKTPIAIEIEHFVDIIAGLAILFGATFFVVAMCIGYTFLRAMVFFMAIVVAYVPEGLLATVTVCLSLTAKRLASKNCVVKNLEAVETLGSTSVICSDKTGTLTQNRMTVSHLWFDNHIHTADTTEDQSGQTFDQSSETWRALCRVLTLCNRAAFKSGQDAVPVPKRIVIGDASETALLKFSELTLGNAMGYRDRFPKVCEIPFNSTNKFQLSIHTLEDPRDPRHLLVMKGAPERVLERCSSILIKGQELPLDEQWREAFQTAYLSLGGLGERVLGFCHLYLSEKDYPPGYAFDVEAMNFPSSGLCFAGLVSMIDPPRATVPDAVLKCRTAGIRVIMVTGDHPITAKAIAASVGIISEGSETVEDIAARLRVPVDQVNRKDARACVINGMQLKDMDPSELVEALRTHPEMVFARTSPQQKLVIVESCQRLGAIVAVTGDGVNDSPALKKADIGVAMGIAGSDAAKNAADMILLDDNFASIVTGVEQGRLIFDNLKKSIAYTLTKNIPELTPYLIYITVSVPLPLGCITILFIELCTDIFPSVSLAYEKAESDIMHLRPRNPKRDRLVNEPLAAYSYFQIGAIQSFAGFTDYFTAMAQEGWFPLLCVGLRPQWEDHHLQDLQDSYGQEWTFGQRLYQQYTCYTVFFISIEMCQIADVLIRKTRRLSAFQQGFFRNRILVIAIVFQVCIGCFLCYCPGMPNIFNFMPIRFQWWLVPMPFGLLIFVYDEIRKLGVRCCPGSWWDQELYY
T1 sequence (P18597 whole entry partner): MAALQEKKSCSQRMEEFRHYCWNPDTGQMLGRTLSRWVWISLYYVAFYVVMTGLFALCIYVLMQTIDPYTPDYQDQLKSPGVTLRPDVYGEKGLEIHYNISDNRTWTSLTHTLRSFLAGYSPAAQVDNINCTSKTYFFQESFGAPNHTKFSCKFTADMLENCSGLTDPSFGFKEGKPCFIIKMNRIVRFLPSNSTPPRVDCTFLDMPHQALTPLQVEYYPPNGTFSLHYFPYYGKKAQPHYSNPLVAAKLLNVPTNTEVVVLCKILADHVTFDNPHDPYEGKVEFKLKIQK

With `Nc1cc(Cl)c(Cl)cc1NC(=O)c1cc[n+]([O-])cc1` [N-(2-amino-4,5-dichlorophenyl)-4-pyridinecarboxamide-1-oxide] the inhibition at 100 µM [1] was 36%.

`Nc1ccccc1NC(=O)c1ccncc1` [N--(2-aminophenyl)pyridine-4-carboxamide, N-(2-aminophenyl)-4-pyridinecarboxamide] gave an inhibition at 100 µM [1] of 54%.

For `O=C(Nc1ccc(Cl)cc1)c1cc[n+]([O-])cc1` [N-(4-chlorophenyl)-4-pyridinecarboxamide-1-oxide], the inhibition at 100 µM [2] was 22%, the inhibition at 100 µM [1] was 32% and the antisecretory activity was “exhibited antisecretory activity”.

In the case of `O=C(Nc1ccccc1)c1cc[n+]([O-])cc1` [phenyl, reference compound], the antisecretory activity was “not active”.

For `Nc1cccc(NC(=O)c2cc[n+]([O-])cc2)c1` [Example 3-amino, reference compound], the antisecretory activity was “inactive”.

For `O=C(Nc1ccccc1Cl)c1cc[n+]([O-])cc1` [2-chlorophenyl, reference compound], the antisecretory activity was “not active”.

In the case of `Nc1ccc(NC(=O)c2cc[n+]([O-])cc2)cc1` [4-amino, reference compound], the antisecretory activity was “inactive”.

`Nc1ccccc1NC(=O)c1cc[n+]([O-])cc1` [N-(2-aminophenyl)pyridine-4-carboxamide-1-oxide] was tested, and the inhibition at 100 µM [2] was 106%, the inhibition at 100 µM [1] was 130% and the antisecretory activity was “exhibited antisecretory activity”.

Work on `O=C(Nc1ccc(Cl)c(C(F)(F)F)c1)c1cc[n+]([O-])cc1` [N-[4-chloro-3-(trifluoromethyl)phenyl]-4-pyridinecarboxamide-1-oxide] yielded an inhibition at 100 µM [1] of 168%.

`O=C(Nc1ccc(Cl)cc1NC(=O)c1cc[n+]([O-])cc1)c1cc[n+]([O-])cc1` [4-Chloro-N,N'-1,2-phenylenebis(4-pyridinecarboxamide-1-oxide)] was tested, and the inhibition at 100 µM [2] was 20.5% and the inhibition at 100 µM [1] was 27%.

For `O=C(Nc1ccc([N+](=O)[O-])cc1)c1cc[n+]([O-])cc1` [N-(4-nitrophenyl)pyridine-4-carboxamide-1-oxide], the inhibition at 100 µM [2] was 33% and the inhibition at 100 µM [1] was 84%.
